Assay results as given in patent US7566528B2, “Method for the identification and/or validation of receptor tyrosine kinase inhibitors” (Esbatech AG, priority 2003, dated 2009).
“Also recorded” adds a separate entry of the source. Where a name gives a salt, the structure may show the parent alone.

Key:
[1] = target: T1, human receptor tyrosine kinase PDGFR-β (Homo sapiens, UniProt P09619); assay: Yeast growth restoration assay, cells expressing PDGFR-β (OD 600 nm); format: cell-based; details: 50 μM in the yeast culture; OD 600 nm light scattering; FIG. 3
T1 construct: N-terminus of the cytoplasmic domains of c-Met (AA932-1366) and PDGFRβ (AA524-1067); myristoylation signal (membrane anchoring) (N); expressed in transfected cells; host or cells: yeast (S. cerevisiae preferred)
Excerpt: (§1) Selection of specific inhibition of Receptor Tyrosine Kinase activity in yeast.

[2] = system: human receptor tyrosine kinase RET; assay: Yeast growth restoration assay, cells expressing RET (OD 600 nm); format: cell-based; details: 50 μM in the yeast culture; OD 600 nm light scattering; FIG. 3
Excerpt: as §1

T1 sequence (P09619 556-1099): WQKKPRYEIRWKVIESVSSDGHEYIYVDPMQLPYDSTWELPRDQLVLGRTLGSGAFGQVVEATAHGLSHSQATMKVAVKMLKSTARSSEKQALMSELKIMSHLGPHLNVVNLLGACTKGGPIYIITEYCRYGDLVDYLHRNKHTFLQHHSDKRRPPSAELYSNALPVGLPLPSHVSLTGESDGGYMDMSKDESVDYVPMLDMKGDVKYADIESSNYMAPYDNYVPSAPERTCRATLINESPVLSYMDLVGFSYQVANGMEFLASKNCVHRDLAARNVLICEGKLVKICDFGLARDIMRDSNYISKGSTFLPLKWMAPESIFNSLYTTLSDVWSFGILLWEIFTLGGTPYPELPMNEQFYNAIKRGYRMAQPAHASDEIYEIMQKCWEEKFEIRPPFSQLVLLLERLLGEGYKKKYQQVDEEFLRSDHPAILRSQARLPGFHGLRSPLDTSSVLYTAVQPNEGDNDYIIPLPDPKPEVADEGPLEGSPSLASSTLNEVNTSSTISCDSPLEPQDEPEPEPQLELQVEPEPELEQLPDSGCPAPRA

With `Cc1ccc(NC(=O)c2ccc(CN3CCN(C)CC3)cc2)cc1Nc1nccc(-c2cccnc2)n1` [imatinib mesylate] the “restoration of growth of PDGFR-β-expressing yeast cells” value [1] was “restore growth under selective conditions; also recorded: specifically restores growth” and the “restoration of growth of RET-expressing yeast cells” value [2] was “not growth of cells expressing RET”.
